Assay results taken from patent publication US11178868B2, “Alkynyl-substituted 3-phenylpyrrolidine-2,4-diones and use thereof as herbicides” (Bayer CropScience Aktiengesellschaft, priority 2015, dated 2021).

Key:
Format in all cases: in vivo
[1] = tested on: Echinochloa crus-galli; test: Post-emergence herbicidal effect; settings: assessed visually after about 3 weeks
Experimental: (§1) Seeds of monocotyledonous and dicotyledonous weed and crop plants are laid out in sandy loam in wood-fibre pots, covered with soil and cultivated in a greenhouse under good growth conditions. 2 to 3 weeks after sowing, the test plants are treated at the one-leaf stage. The compounds according to the invention, formulated in the form of wettable powders (WP) or as emulsion concentrates (EC), are then sprayed as aqueous suspension or emulsion at a water application rate of 600 to 800 I/ha (converted) with the addition of 0.2% of wetting agent onto the green parts of the plants. After the test plants have been left to stand in the greenhouse under optimal growth conditions for about 3 weeks, the action of the preparations is assessed visually in comparison to untreated controls (herbicidal action in percent (%): 100% activity=the plants have died, 0% activity=like control plants).

[2] = tested on: Polygonum convolvulus; test: Post-emergence herbicidal effect; settings: 80 g a.i./ha, assessed visually after about 3 weeks
Experimental: as §1

[3] = tested on: Avena fatua; test: Post-emergence herbicidal effect; settings: assessed visually after about 3 weeks
Experimental: as §1

[4] = tested on: Amaranthus retroflexus; test: Post-emergence herbicidal effect; settings: assessed visually after about 3 weeks
Experimental: as §1

[5] = tested on: Setaria viridis; test: Post-emergence herbicidal effect; settings: assessed visually after about 3 weeks
Experimental: as §1

[6] = tested on: Lolium multiflorum; test: Post-emergence herbicidal effect; settings: assessed visually after about 3 weeks
Experimental: as §1

[7] = tested on: Alopecurus myosuroides; test: Post-emergence herbicidal effect; settings: assessed visually after about 3 weeks
Experimental: as §1

[8] = tested on: Echinochloa crus-galli; test: Pre-emergence herbicidal effect; settings: scored visually after 3 weeks
From the text: (§2) Seeds of monocotyledonous and dicotyledonous weed plants and crop plants are laid out in wood-fibre pots in sandy loam and covered with soil. The compounds according to the invention formulated in the form of wettable powders (WP) or as emulsion concentrates (EC) are then applied as aqueous suspension or emulsion at a water application rate of 600 to 800 I/ha (converted) with the addition of 0.2% wetting agent to the surface of the covering soil. After the treatment, the pots are placed in a greenhouse and kept under good growth conditions for the trial plants. The damage to the test plants is scored visually after a test period of 3 weeks by comparison with untreated controls (herbicidal activity in percent (%): 100% activity=the plants have died, 0% activity=like control plants).

[9] = tested on: Avena fatua; test: Pre-emergence herbicidal effect; settings: scored visually after 3 weeks
From the text: as §2

[10] = tested on: Setaria viridis; test: Pre-emergence herbicidal effect; settings: scored visually after 3 weeks
From the text: as §2

[11] = tested on: Lolium multiflorum; test: Pre-emergence herbicidal effect; settings: scored visually after 3 weeks
From the text: as §2

[12] = tested on: Alopecurus myosuroides; test: Pre-emergence herbicidal effect; settings: scored visually after 3 weeks
From the text: as §2

[13] = tested on: Cyperus esculentus; test: Pre-emergence herbicidal effect; settings: scored visually after 3 weeks
From the text: as §2

Row | Structure (SMILES) | Herbicidal effect against [%] ECHCG ([1]; 20 g a.i./ha) | Herbicidal effect against [%] ECHCG ([1]; 80 g a.i./ha) | Herbicidal effect against [%] AVEFA ([3]; 20 g a.i./ha) | Herbicidal effect against [%] AVEFA ([3]; 80 g a.i./ha) | Herbicidal effect against [%] SETVI ([5]; 20 g a.i./ha) | Herbicidal effect against [%] SETVI ([5]; 80 g a.i./ha) | Herbicidal effect against [%] LOLMU ([6]; 20 g a.i./ha) | Herbicidal effect against [%] LOLMU ([6]; 80 g a.i./ha) | Herbicidal effect against [%] ALOMY ([7]; 20 g a.i./ha) | Herbicidal effect against [%] ECHCG ([8]; 80 g a.i./ha) | Herbicidal effect against [%] ECHCG ([8]; 320 g a.i./ha) | Herbicidal effect against [%] AVEFA ([9]; 80 g a.i./ha) | Herbicidal effect against [%] AVEFA ([9]; 320 g a.i./ha) | Herbicidal effect against [%] SETVI ([10]; 80 g a.i./ha) | Herbicidal effect against [%] SETVI ([10]; 320 g a.i./ha) | Herbicidal effect against [%] LOLMU ([11]; 80 g a.i./ha) | Herbicidal effect against [%] LOLMU ([11]; 320 g a.i./ha) | Herbicidal effect against [%] ALOMY ([12]; 80 g a.i./ha) | Herbicidal effect against [%] ALOMY ([12]; 320 g a.i./ha) | Herbicidal effect against [%] CYPES ([13]; 320 g a.i./ha) | other results
1 | CC#Cc1cc(C)c(C2=C(OC(=O)OCC)C3(CCCC(OCCOC)C3)NC2=O)c(C)c1 (stereo not shown) [Example P15] | 100% | 100% | 100% | 100% | 100% | 100% | 100% | 100% | 100% | 100% | 100% | 100% | 100% | 100% | 100% | 100% | 100% | 100% | 100% |  | Herbicidal effect against [%] POLCO [2]: 80%; Herbicidal effect against [%] AMARE ([4]; 20 g a.i./ha): 80%; Herbicidal effect against [%] AMARE ([4]; 80 g a.i./ha): 80%; Herbicidal effect against [%] ALOMY ([7]; 80 g a.i./ha): 100%
2 | CC#Cc1cc(C)c(C2=C(OC(=O)OCC)C3(CCCC(OCCOC)C3)NC2=O)c(CC)c1 (stereo not shown) [Example P13] | 100% | 100% | 100% | 100% | 100% | 100% | 100% | 100% | 100% | 100% | 100% | 100% | 100% | 100% | 100% | 100% | 100% | 100% | 100% | 90% | Herbicidal effect against [%] ALOMY ([7]; 80 g a.i./ha): 100%
3 | CC#Cc1cc(C)c(C2=C(OC(=O)OCC)C3(CCCC(OCC)C3)NC2=O)c(CC)c1 (stereo not shown) [Example P1] |  |  |  |  |  | 100% |  |  |  | 100% | 100% | 80% | 100% | 100% | 100% | 100% | 100% | 100% | 100% | 100% | Herbicidal effect against [%] CYPES ([13]; 80 g a.i./ha): 100%
4 | C#Cc1cc(C)c(C2=C(O)C3(CCCC(OCCCC)C3)NC2=O)c(C)c1 (stereo not shown) [Example D4] |  |  |  |  |  |  |  |  |  |  | 100% |  |  |  | 80% |  | 80% |  |  | 100% | 
